Drawing on US12552785B2, “Pyrazolo[1,5-α]pyridine derivative, preparation method therefor, and composition and use thereof” (SHENZHEN ZHONGGE BIOLOGICAL TECHNOLOGY CO., LTD., priority 2020, dated 2026), this text covers IC50 and GI50 for 22 compounds.

Bounds are passed on as bounds.

What is called GI50 is the concentration that inhibits growth by half. Low readings indicate more potent growth inhibition, high ones less potent growth inhibition.

For one test, the target named is RET (Homo sapiens, UniProt P07949). The test can be described thus: HTRF method for testing the inhibitory activity of compounds against RET. Type of test: biochemical. Particulars: IC50 by nonlinear regression, read-out: RET kinase activity. As to the method:
(a) In Vitro Screening Experiment-HTRF Method for Testing the Inhibitory Activity of Compounds Against RET Experimental Procedure: 1. […] 2. The test compound (5 mM stock solution) was diluted 5 folds to 1 mM with 100% dimethyl sulfoxide; the compound was diluted into 10 concentrations at an equal ratio of 1:3 in a 384-well dilution plate. 3. 0.2 μL of the serially diluted compound was added to a 384-well plate using an Echo 550 pipetting system, 2 replicate wells for each concentration, and the final concentration of dimethyl sulfoxide was 0.5% (v/v). […] 6. […] The reaction solution was centrifuged at 1000 g for 30 s, and then sealed, and incubated at room temperature for 30 min. 8. […] 10. […] 11. […] IC50 was calculated with software GraphPad 6.0 by fitting inhibition values and logarithms of compound concentrations to a nonlinear regression (dose response−variable slope).

In a further test the target is VEGFR2 (Homo sapiens, UniProt P35968). The test can be described thus: HTRF method for testing the inhibitory activity of compounds against VEGFR2. As to conditions: IC50 by nonlinear regression, read-out: VEGFR2 kinase activity. It is filed as biochemical. As to the method: (b) In Vitro Screening Experiment—HTRF Method for Testing the Inhibitory Activity of Compounds Against VEGFR2 Experimental Procedure: 1. […] The test compound (5 mM stock solution) was diluted 5 folds to 1 mM with 100% dimethyl sulfoxide; the compound was diluted into 10 concentrations at an equal ratio of 1:3 in a 384-well dilution plate. 3. […] 6. […] The reaction solution was centrifuged at 1000 g for 30 s, and then sealed, and incubated at room temperature for 40 min. 8. […] 10. […] 11. […] 12. IC50 was calculated with software GraphPad 6.0 by fitting inhibition values and logarithms of compound concentrations to a nonlinear regression (dose response−variable slope).
For orientation: Time-resolved FRET reads energy transfer from a long-lived donor to a nearby acceptor.

Another test deals with T1, Ba/F3-KIF5B-RET cell (Homo sapiens, UniProt P07949).
T1 construct: fused on or other part: P33176 (Kinesin-1 heavy chain)
Briefly: CellTiter-Glo luminescence assay for inhibitory activity against Ba/F3-KIF5B-RET cell. It is filed as cell-based. Particulars: Ba/F3-KIF5B-RET cells, 72 h. From the text:
(c) In Vitro Screening Experiment—CellTiter-Glo Luminescence Assay for Testing the Inhibitory Activity of Compounds Against Ba/F3-KIF5B-RET Cell Experimental Procedure: 1. The mammalian cell expression vector containing human KIF5B-RET cDNA was introduced into Ba/F3 cells using the Neon® transfection system method, and the surviving clones screened by puromycin were subjected to cell growth inhibitory function experiments and Western blotting to verify cell lines with stable and high expression of RET. 2. […] 3. The test compound (5 mM stock) was diluted 2.5 folds to 2 mM with 100% dimethyl sulfoxide; and the compound was diluted into 10 concentrations at an equal ratio of 1:3 in a 384-well dilution plate. 4. […] 6. […] 7. By fitting the data with XLFit 5.0 based on the parameters formula, the IC50 value was calculated as: Y=Bottom+(Top−Bottom)/(1+10^((Log IC50−X)*HillSlope)).
(ATP-based viability assays read luminescence as a measure of living cells.)

T1 sequence (P07949 whole entry, change not shown, the tested form may be a part): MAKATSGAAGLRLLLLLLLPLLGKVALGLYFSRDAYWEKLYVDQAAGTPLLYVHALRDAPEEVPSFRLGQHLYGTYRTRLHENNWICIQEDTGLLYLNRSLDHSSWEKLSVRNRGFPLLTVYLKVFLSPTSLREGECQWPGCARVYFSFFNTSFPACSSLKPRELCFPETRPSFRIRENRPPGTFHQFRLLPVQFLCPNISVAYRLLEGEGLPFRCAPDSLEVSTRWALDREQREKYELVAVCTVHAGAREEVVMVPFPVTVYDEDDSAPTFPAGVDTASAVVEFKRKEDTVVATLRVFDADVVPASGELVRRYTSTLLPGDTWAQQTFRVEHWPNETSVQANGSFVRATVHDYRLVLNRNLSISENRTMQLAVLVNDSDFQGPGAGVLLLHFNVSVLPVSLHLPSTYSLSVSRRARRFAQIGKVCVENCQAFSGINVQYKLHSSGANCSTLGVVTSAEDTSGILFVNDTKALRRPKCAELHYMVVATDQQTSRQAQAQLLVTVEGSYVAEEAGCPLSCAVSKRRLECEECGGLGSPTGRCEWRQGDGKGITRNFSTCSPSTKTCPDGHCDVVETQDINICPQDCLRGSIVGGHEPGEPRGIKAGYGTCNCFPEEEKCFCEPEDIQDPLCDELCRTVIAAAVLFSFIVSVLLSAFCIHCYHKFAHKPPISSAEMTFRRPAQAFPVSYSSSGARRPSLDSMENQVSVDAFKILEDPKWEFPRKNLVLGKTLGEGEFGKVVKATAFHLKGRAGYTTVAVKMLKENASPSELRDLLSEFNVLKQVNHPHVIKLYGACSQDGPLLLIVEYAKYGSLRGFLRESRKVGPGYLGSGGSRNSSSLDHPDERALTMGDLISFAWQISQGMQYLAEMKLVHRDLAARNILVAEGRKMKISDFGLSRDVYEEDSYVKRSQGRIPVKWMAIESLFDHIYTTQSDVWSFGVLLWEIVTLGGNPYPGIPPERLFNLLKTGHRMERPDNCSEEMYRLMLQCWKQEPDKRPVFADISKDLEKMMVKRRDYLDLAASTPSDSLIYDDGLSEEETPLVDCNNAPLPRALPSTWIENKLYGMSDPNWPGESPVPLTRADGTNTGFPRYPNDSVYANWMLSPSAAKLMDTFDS
VEGFR2, sequence (P35968 20-1356, species assumed): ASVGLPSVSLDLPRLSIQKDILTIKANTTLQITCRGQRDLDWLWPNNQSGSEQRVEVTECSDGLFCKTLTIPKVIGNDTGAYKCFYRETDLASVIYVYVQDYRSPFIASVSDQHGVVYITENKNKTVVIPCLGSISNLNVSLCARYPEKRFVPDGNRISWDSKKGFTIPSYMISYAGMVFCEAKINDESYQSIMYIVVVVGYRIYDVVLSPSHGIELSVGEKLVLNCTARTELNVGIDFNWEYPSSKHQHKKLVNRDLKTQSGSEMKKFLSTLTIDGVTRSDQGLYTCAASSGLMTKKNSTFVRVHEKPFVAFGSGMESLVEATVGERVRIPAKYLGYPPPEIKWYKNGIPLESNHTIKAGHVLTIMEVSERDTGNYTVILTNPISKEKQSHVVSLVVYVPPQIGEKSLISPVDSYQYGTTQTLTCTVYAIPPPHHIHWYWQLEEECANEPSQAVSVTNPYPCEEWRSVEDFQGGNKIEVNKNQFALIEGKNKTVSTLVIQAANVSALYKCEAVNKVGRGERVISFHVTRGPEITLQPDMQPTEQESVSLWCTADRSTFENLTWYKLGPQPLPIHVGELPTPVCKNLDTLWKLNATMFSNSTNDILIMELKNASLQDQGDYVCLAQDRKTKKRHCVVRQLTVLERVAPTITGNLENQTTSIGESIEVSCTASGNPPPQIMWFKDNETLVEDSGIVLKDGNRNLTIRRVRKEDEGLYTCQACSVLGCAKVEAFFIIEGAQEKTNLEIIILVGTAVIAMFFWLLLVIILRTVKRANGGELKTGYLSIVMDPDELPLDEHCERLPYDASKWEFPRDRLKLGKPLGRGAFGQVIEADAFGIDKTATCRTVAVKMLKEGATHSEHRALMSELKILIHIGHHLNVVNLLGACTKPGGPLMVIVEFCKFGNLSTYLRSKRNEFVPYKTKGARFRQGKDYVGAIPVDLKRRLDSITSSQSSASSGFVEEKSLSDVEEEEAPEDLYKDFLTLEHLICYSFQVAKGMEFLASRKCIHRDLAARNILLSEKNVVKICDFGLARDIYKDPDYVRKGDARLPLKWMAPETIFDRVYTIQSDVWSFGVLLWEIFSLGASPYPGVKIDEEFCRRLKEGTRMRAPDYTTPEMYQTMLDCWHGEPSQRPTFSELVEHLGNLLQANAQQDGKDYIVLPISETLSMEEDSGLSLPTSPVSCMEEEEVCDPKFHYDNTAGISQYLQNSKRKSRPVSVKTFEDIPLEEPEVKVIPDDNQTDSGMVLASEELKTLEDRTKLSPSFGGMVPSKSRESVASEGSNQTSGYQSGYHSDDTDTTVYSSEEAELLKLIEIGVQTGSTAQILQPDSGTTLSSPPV
RET, sequence (P07949 29-1114): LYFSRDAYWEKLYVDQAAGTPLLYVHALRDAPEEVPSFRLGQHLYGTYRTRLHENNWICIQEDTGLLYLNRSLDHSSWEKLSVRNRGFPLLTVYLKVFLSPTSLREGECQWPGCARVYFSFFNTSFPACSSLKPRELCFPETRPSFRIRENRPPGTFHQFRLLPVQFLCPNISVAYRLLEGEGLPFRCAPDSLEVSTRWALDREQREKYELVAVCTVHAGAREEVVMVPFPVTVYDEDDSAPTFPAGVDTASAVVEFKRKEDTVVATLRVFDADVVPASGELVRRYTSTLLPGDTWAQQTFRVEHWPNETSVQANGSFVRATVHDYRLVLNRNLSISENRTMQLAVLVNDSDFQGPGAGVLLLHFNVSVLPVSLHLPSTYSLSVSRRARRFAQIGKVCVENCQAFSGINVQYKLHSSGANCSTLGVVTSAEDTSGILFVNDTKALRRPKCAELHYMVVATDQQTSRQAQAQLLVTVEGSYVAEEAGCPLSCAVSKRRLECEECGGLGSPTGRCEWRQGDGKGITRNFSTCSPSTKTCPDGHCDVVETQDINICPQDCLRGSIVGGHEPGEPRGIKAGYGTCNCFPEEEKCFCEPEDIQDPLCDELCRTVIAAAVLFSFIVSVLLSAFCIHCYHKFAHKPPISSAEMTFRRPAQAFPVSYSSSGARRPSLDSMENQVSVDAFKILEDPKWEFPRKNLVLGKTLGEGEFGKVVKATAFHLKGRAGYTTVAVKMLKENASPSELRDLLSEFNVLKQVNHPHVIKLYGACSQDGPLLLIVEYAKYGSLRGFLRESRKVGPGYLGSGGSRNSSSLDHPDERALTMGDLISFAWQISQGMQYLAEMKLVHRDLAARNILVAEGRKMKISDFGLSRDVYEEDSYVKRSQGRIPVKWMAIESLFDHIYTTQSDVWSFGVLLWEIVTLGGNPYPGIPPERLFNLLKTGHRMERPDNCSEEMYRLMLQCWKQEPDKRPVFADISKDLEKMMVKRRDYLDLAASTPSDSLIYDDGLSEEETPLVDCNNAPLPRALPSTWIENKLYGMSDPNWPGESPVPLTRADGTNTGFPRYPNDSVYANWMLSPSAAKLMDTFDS

`C[C@@H](c1ccc(-n2cc(F)cn2)nc1)N(C)c1ccc(-c2cc(OCC(C)(C)C#N)cn3ncc(C#N)c23)cn1` [Compound 18, (S)-6-(2-cyano-2-methylpropoxy)-4-(6-((1-(6-(4-fluoro-1H-pyrazol-1-yl)pyridine-3-yl)ethyl)(methyl)amino)pyridin-3-yl)pyrazolo[1,5-a]pyridine-3-carbonitrile]: the IC50 came to 0.4 nM on RET and 135 nM at VEGFR2. The GI50 at Ba/F3-KIF5B-RET cell came out at 40 nM.

In the case of `CCOc1cc(-c2ccc(N(C)[C@@H](C)c3ccc(-n4cc(F)cn4)nc3)nc2)c2c(C#N)cnn2c1` [Compound 30, (S)-4-(6-((1-(6-(4-fluoro-1H-pyrazol-1-yl)pyridin-3-yl)ethyl)(methyl)amino)pyridine-3-yl)-6-ethoxypyrazolo[1,5-a]pyridine-3-carbonitrile], the IC50 at RET was determined as 0.47 nM; at VEGFR2, 175 nM. The compound also yielded a GI50 on Ba/F3-KIF5B-RET cell of 15.1 nM.

With `CC[C@H](Nc1ccc(-c2cc(OCC(C)(C)O)cn3ncc(C#N)c23)cn1)c1ccc(-n2cc(F)cn2)nc1` [Compound 15, (S)-4-(6-((1-(6-(4-fluoro-1H-pyrazol-1-yl)pyridin-3-yl)propyl)amino)pyridin-3-yl)-6-(2-hydroxy-2-methylpropoxy)pyrazolo[1,5-a]pyridine-3-carbonitrile], the IC50 at RET was 0.58 nM; on VEGFR2 it was 2.95 nM. The same compound showed a GI50 on Ba/F3-KIF5B-RET cell of 10.4 nM.

Regarding `CC(C)(O)COc1cc(-c2ccc(NCc3ccc(-c4cccnc4)nc3)nc2)c2c(C#N)cnn2c1` [Compound 9, 4-(6-(([2,3′-bipyridyl]-5-ylmethyl)amino)pyridin-3-yl)-6-(2-hydroxy-2-methylpropoxy)pyrazole[1,5-a]pyridine-3-carbonitrile], the results for the IC50 on RET and at VEGFR2 were 19.6 nM and 116 nM, respectively. Also, on Ba/F3-KIF5B-RET cell, the 50% growth inhibitory concentration (GI50) turned out to be 145 nM.

Consider `CCNc1cc(-c2ccc(N(C)[C@@H](C)c3ccc(-n4cc(F)cn4)nc3)nc2)c2c(C#N)cnn2c1` [Compound 51, (S)-4-(6-((1-(6-(4-fluoro-1H-pyrazol-1-yl)pyridin-3-yl)ethyl)(methyl)amino)pyridine-3-yl)-6-(ethylamino)pyrazolo[1,5-a]pyridine-3-carbonitrile], for which the IC50 was 0.47 nM at RET and 4.14 nM at VEGFR2. On Ba/F3-KIF5B-RET cell, this compound returned a GI50 of 5.02 nM.

Regarding `COc1ccc([C@H](C)N(C)c2ccc(-c3cc(OCC(C)(C)O)cn4ncc(C#N)c34)cn2)cn1` [Compound 43, (S)-6-(2-hydroxy-2-methylpropoxy)-4-(6-((1-(6-methoxypyridin-3-yl)ethyl)(methyl)amino)pyridin-3-yl)pyrazolo[1,5-a]pyridine-3-carbonitrile], the IC50 is 2.05 nM on RET and 245 nM at VEGFR2. In addition, it took 35 nM to inhibit growth on Ba/F3-KIF5B-RET cell by half (GI50).

Turning to `C[C@@H](c1ccc(-n2cc(F)cn2)nc1)N(C)c1ccc(-c2cc(C#CC(C)(C)O)cn3ncc(C#N)c23)cn1` [Compound 27, (S)-4-(6-((1-(6-(4-fluoro-1H-pyrazol-1-yl)pyridin-3-yl)ethyl)(methyl)amino)pyridine-3-yl)-6-(3-hydroxy-3-methyl-1-yn-1-yl)pyrazolo[1,5-a]pyridine-3-carbonitrile], the IC50 at RET was 1.33 nM; on VEGFR2 it was 21.9 nM. In addition, on Ba/F3-KIF5B-RET cell, the GI50 turned out to be 43.8 nM.

`CC(C)(O)COc1cc(-c2ccc(NCc3ccc(-n4cc(F)cn4)nc3)nc2)c2c(C#N)cnn2c1` [Compound 1, 4-(6-(((6-(4-fluoro-1H-pyrazol-1-yl)pyridin-3-yl)methyl)amino)pyridin-3-yl)-6-(2-hydroxy-2-methylpropoxy)pyrazolo[1,5-a]pyridine-3-carbonitrile]: the IC50 on RET stood at 0.34 nM; at VEGFR2, 7.37 nM. In addition, growth at Ba/F3-KIF5B-RET cell was halved (GI50) at 13.9 nM.

As to `C=CCOc1cc(-c2ccc(N(C)[C@@H](C)c3ccc(-n4cc(F)cn4)nc3)nc2)c2c(C#N)cnn2c1` [Compound 31, (S)-4-(6-((1-(6-(4-fluoro-1H-pyrazol-1-yl)pyridin-3-yl)ethyl)(methyl)amino)pyridine-3-yl)-6-allyloxypyrazolo[1,5-a]pyridine-3-carbonitrile], the IC50 at RET is 269 nM; at VEGFR2, greater than 5000 nM.

As for `C[C@@H](c1ccc(-n2cc(F)cn2)nc1)N(C)c1ccc(-c2cc(OCCO)cn3ncc(C#N)c23)cn1` [Compound 20], the IC50 stood at 0.25 nM at RET and 10.1 nM on VEGFR2. The GI50 at Ba/F3-KIF5B-RET cell worked out at 13.5 nM.

On to `CNc1cc(-c2ccc(N(C)[C@@H](C)c3ccc(-n4cc(F)cn4)nc3)nc2)c2c(C#N)cnn2c1` [Compound 52, (S)-4-(6-((1-(6-(4-fluoro-1H-pyrazol-1-yl)pyridin-3-yl)ethyl)(methyl)amino)pyridine-3-yl)-6-(methylamino)pyrazolo[1,5-a]pyridine-3-carbonitrile], for which the IC50 was found to be 0.29 nM at RET and 5.62 nM at VEGFR2.

`C[C@@H](c1ccc(-n2cc(Cl)cn2)nc1)N(C)c1ccc(-c2cc(OCC(C)(C)O)cn3ncc(C#N)c23)cn1` [Compound 45, (S)-4-(6-((1-(6-(4-chloro-1H-pyrazol-1-yl)pyridin-3-yl)ethyl)(methyl)amino)pyridine-3-yl)-6-(2-hydroxy-2-methylpropoxy)pyrazo[1,5-a]pyridine-3-carbonitrile]: on VEGFR2, the IC50 came to 1980 nM. Further, at Ba/F3-KIF5B-RET cell, growth was halved (GI50) at 39.3 nM.

Consider `CC(Nc1ccc(-c2cc(OCC(C)(C)O)cn3ncc(C#N)c23)cn1)c1ccc(-n2cc(F)cn2)nc1` (stereo not drawn) [Compound 6], for which the IC50 amounted to 1.2 nM at RET and 11.8 nM on VEGFR2. The compound also displayed a GI50 on Ba/F3-KIF5B-RET cell of 50.5 nM.

In the case of `Cc1cnn(-c2ccc([C@H](C)N(C)c3ccc(-c4cc(OCC(C)(C)O)cn5ncc(C#N)c45)cn3)cn2)c1` [Compound 37], the IC50 at VEGFR2 turned out to be 270 nM. On Ba/F3-KIF5B-RET cell, this compound gave a GI50 of 18.6 nM.

In the case of `CCc1cc(-c2ccc(N(C)[C@@H](C)c3ccc(-n4cc(F)cn4)nc3)nc2)c2c(C#N)cnn2c1` [Compound 66], the IC50 at RET is 4.35 nM; at VEGFR2, 241 nM.

With `Cc1ccc([C@H](C)N(C)c2ccc(-c3cc(OCC(C)(C)O)cn4ncc(C#N)c34)cn2)cn1` [Compound 63], the IC50 at RET is 4.56 nM; at VEGFR2, 361 nM.

As to `COc1cc(-c2ccc(N(C)[C@@H](C)c3ccc(-n4cc(F)cn4)nc3)nc2)c2c(C#N)cnn2c1` [Compound 40, (S)-4-(6-((1-(6-(4-fluoro-1H-pyrazol-1-yl)pyridin-3-yl)ethyl)(methyl)amino)pyridine-3-yl)-6-methoxypyrazolo[1,5-a]pyridine-3-carbonitrile], the IC50 on RET amounted to 0.83 nM; at VEGFR2, 48.3 nM.

With `C#Cc1cc(-c2ccc(N(C)[C@@H](C)c3ccc(-n4cc(F)cn4)nc3)nc2)c2c(C#N)cnn2c1` [Compound 65], the IC50 on RET was found to be 2.66 nM; at VEGFR2, 780 nM.

In the case of `COCCOc1cc(-c2ccc(N(C)[C@@H](C)c3ccc(-n4cc(F)cn4)nc3)nc2)c2c(C#N)cnn2c1` [Compound 54, (S)-4-(6-((1-(6-(4-fluoro-1H-pyrazol-1-yl)pyridin-3-yl)ethyl)(methyl)amino)pyridine-3-yl)-6-(2-methoxyethoxy)pyrazolo[1,5-a]pyridine-3-carbonitrile], the IC50 was found to be 0.3 nM at RET and 21.1 nM on VEGFR2.

`C[C@@H](c1ccc(-n2cc(F)cn2)nc1)N(C)c1ccc(-c2cc(OCCF)cn3ncc(C#N)c23)cn1` [Compound 41, (S)-4-(6-((1-(6-(4-fluoro-1H-pyrazol-1-yl)pyridin-3-yl)ethyl)(methyl)amino)pyridine-3-yl)-6-(2-fluoroethoxy)pyrazolo[1,5-a]pyridine-3-carbonitrile]: the IC50 at RET came out at 0.34 nM; at VEGFR2 it was 49.7 nM.

In the case of `CCN(CC)c1ccc([C@H](C)N(C)c2ccc(-c3cc(OCC(C)(C)O)cn4ncc(C#N)c34)cn2)cn1` [Compound 42, (S)-4-(6-((1-(6-(diethylamino)pyridin-3-yl)ethyl)(methyl)amino)pyridin-3-yl)-6-(2-hydroxy-2-methylpropoxy)pyrazolo[1,5-a]pyridine-3-carbonitrile], the IC50 on RET was 18 nM; on VEGFR2, 199 nM.

As for `C[C@@H](c1ccc(-n2cc(F)cn2)nc1)N(C)c1ccc(-c2cc(N3CCCC3)cn3ncc(C#N)c23)cn1` [Compound 59], the IC50 is 3.49 nM on RET and 64.3 nM at VEGFR2.
